Experimental findings from paper PMC10454575, “A Novel Aniline Derivative from Peganum harmala L. Promoted Apoptosis via Activating PI3K/AKT/mTOR-Mediated Autophagy in Non-Small Cell Lung Cancer Cells” (International Journal of Molecular Sciences, 2023) are described below.

The test addresses T1, CD133 (Homo sapiens, UniProt O43490).
T1 construct: gene PROM1
T1 sequence (O43490 20-865): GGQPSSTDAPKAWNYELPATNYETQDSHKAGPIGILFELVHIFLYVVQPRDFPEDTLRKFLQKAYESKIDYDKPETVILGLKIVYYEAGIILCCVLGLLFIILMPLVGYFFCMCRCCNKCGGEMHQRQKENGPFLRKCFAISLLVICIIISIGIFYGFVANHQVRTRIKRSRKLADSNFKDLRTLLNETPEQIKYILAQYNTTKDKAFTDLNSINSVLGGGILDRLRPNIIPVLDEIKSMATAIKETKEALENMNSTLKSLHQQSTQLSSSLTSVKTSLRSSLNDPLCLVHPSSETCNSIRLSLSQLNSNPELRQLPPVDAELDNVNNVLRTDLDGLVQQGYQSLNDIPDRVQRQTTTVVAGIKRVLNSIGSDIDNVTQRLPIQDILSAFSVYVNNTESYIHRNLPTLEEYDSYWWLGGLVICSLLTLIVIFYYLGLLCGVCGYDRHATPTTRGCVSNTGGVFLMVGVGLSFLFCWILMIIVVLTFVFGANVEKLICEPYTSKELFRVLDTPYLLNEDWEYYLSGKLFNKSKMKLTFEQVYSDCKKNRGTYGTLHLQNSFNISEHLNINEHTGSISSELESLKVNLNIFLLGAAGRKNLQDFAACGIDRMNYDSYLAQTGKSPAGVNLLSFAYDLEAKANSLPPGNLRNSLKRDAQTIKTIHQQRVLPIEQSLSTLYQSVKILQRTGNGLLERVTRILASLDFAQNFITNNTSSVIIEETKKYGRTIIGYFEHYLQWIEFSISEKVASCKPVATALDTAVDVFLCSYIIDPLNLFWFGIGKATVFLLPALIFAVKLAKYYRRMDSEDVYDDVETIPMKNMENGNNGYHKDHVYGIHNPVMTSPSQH
The test can be described thus: surface plasmon resonance (SPR), single-site fit, […] PA. The test is classed as binding. A general note: Surface plasmon resonance follows binding to a sensor surface in real time, without labels.

`COc1ccc(C(=O)CCNC(C)=O)c(N)c1` [PA, pegaharoline A] showed a Kd of 7.25 µM.

By Kd is commonly meant a measure of binding affinity in units of concentration. A low value points to tighter binding.
